The record followed here is US4169141A, “1-Peptidyl derivatives of di-O-aminoglycosyl-1,3-diaminocyclitol antibacterial agents” (priority 1978, dated 1979).

In this assay the test system is Pseudomonas infections caused by known producers of GAT I. In words: Mouse protection test, Pseudomonas infection. In kind it is in vivo, CF1 (Carworth Farms) mice. As to conditions: CF1 mice 18 to 20 g. How it is done: B. Mouse protection tests were performed in the usual manner using CF1 (Carworth Farms) mice weighing 18 to 20 g. each. […] Thus, the compounds of this invention may be used to control or eradicate susceptible bacterial strains in warm blooded animals, particularly in laboratory animals.

In the case of `CN[C@@H]1[C@@H](O)[C@@H](O[C@@H]2[C@@H](O)[C@H](O[C@H]3OC(CN)=CC[C@H]3N)[C@@H](N)C[C@H]2N)OC[C@]1(C)O` [sisomicin], the “protection (mouse protection test, PD50)” value was “slight protection”.
